Results on 5 compounds are retold here after ChEMBL document CHEMBL1201862, “PubChem BioAssay data set” (2004).

What is called EC50 is the midpoint of the concentration-response curve. What is called AC50 is the midpoint of the concentration-response curve, whichever way the signal moves. Usually IC50 stands for the point on the concentration scale where inhibition reaches its midpoint.

Active and inactive are the calls of the source. Rule as the data show it, for most assays here: actives have a measured EC50 and inactives only a lower limit. A value given as a limit tells only on which side of the number the result lay.

Assay [1] relates to Streptococcus sp. 'group A'. Put plainly: Streptococcus pyogenes SK(-)GAS viability under kanamycin – luminescence, BacTiterGlo, confirmation, counter-screen for streptokinase expression inhibitor project, dose response (AID 1900). It counts as functional, organism-based.
The target in another assay is T1, Streptokinase A (Streptococcus pyogenes serotype M1, UniProt P10520).
T1 sequence (P10520 whole entry): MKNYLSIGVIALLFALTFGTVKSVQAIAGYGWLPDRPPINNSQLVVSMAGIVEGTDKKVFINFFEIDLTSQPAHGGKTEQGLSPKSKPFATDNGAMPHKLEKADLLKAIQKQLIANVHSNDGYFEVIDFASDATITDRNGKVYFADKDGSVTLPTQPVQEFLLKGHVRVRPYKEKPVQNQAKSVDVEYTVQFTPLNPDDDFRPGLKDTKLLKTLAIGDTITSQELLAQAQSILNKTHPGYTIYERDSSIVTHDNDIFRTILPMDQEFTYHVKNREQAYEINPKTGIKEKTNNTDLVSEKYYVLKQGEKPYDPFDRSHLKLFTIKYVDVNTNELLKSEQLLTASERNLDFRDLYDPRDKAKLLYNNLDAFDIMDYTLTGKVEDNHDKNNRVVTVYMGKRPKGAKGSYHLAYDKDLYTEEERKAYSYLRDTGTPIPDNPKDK
Put plainly: viability-normalized secreted streptokinase activity reduction – plasminogen activation absorbance, OD405, dose response (AID 1914).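 Also: secreted streptokinase activity via plasminogen activation per viability signal from cell pellet.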 It counts as functional, Streptococcus pyogenes M1 GAS.

In the next assay the test system is Streptococcus. Put plainly: GAS UMAA2166 growth inhibition – luminescence, BacTiterGlo, counter-screen for streptokinase expression inhibitor project, dose response (AID 1915).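 Also: potency for reduction of bacterial viability or growth.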 It counts as functional, organism-based. Background: A counterscreen serves to expose hits that act by an unwanted route or on another target.
For assay [2], the target named is T2, Replicative DNA helicase DnaB (Mycobacterium tuberculosis, UniProt P9WMR3).
T2 sequence (P9WMR3 whole entry): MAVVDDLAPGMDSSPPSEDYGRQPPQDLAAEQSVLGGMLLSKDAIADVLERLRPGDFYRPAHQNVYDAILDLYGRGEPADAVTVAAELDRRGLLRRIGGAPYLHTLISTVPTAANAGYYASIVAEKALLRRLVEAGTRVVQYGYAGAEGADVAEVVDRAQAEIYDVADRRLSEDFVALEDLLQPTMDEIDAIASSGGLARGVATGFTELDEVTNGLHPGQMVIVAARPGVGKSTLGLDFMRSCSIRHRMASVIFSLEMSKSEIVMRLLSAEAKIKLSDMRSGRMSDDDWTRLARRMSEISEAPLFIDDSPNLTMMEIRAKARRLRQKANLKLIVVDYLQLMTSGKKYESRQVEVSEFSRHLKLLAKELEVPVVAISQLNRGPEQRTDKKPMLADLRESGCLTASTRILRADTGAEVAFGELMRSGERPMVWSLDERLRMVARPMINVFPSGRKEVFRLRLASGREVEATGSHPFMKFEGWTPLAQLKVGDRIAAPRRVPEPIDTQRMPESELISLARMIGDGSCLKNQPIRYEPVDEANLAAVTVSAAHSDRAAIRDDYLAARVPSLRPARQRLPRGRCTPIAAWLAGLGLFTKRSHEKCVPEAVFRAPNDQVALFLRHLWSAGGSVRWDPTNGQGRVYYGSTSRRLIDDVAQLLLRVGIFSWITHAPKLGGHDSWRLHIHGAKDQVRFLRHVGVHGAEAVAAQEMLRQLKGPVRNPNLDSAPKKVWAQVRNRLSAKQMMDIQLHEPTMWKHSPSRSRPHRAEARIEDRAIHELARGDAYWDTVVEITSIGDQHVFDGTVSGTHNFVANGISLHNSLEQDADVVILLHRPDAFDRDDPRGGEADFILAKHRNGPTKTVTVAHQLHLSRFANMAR
In words: DnaB intein splicing inhibitors, dose response, biochemical, cell-free fluorescence (AID 449749). Format: functional.

In the next assay the target is T3, Protein RecA (Mycobacterium tuberculosis, UniProt P9WHJ3).
T3 sequence (P9WHJ3 whole entry): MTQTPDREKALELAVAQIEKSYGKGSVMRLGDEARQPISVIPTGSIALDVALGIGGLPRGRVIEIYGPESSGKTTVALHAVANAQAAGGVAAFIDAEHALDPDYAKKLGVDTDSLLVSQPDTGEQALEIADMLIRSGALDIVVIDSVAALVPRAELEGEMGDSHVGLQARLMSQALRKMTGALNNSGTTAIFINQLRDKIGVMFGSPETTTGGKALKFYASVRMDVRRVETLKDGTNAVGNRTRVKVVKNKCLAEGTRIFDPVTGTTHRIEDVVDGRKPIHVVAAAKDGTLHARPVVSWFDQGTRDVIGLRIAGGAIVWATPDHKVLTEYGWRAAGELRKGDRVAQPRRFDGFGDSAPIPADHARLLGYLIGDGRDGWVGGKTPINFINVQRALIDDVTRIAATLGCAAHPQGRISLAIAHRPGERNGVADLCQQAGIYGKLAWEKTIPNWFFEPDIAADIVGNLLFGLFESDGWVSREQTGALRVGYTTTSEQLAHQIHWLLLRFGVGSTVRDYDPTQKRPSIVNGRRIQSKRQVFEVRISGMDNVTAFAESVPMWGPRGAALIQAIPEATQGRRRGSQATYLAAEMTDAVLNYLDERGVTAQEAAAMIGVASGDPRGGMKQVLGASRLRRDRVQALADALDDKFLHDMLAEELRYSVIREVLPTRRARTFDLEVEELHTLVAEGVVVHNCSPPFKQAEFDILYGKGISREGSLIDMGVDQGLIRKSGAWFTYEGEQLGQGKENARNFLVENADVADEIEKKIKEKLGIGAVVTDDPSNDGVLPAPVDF
Put plainly: Fluorescence Cell-Free Homogeneous Dose Retest to Identify Inhibitors of RecA-Intein Splicing Activity. [Related pubchem assays (depositor defined):AID2097, AID2223, AID489010, AID492950]. Format: functional.

For assay [3], the target named is T4, Tyrosyl-DNA phosphodiesterase 2 (Homo sapiens, UniProt O95551).
T4 sequence (O95551 whole entry): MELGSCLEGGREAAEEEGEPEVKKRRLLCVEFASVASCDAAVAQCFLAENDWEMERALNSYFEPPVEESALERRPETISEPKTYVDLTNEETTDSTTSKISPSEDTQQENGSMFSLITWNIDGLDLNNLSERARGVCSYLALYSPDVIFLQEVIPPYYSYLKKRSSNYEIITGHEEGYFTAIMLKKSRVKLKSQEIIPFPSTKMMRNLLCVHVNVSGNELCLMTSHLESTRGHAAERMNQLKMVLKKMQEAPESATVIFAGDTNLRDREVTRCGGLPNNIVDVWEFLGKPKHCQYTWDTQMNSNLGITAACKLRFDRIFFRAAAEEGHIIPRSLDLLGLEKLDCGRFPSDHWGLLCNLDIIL
Put plainly: potency against TDP2 phosphodiesterase activity – biochemical, epi absorbance, IC50, dose response (AID 743297).

Assay [4] is described as follows: Trypanosoma cruzi growth suppression in host cells – NIH3T3 host cells, beta-gal luminescence, confirmation (AID 2044).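 Also: intracellular parasites grown in NIH/3T3 mouse fibroblasts as host cells; luminescent beta-galactosidase reporter signal from transgenic T. cruzi replicating inside host cells; inhibitors lower the luminescence signal.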 It counts as functional, cell-based.
The nature of assay [5]: NIH3T3 cell viability loss – ATP luminescence, mouse fibroblasts, counter-screen, dose response (AID 2010).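 Also: cells exposed to compound for about 90 hours before reading.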 It counts as functional, cell-based.

As for `CCc1nnc(NS(=O)(=O)c2ccc(NC(=S)NC(=O)/C=C/c3ccc(C(C)C)cc3)cc2)s1`, the 50% effective concentration (EC50) was 2390 nM (active) in assay [1], 4440 nM (active) on Streptokinase A, 7830 nM (active) in the assay with Streptococcus and 33400 nM (active) on Protein RecA. Further, the half-maximal activity concentration (AC50) in assay [2] was 3150 nM (active).
In the case of `COc1ccc(S(=O)(=O)Nc2cc(SCC(=O)O)c(O)c3ccccc23)cc1`, the AC50 in assay [2] was 885 nM (active). The EC50 at Protein RecA is 234 nM (active). The IC50 in assay [3] is 75900 nM (inactive).
Consider `O=C1C(Nc2ccc(O)cc2)=C/C(=N/S(=O)(=O)c2cccs2)c2ccccc21`, for which the EC50 in assay [1] is 1680 nM (active); on Streptokinase A it was > 150000 nM (not active); in assay [4] it was 550 nM (active); in assay [5] it was 486 nM (active); in the assay with Streptococcus it was 7100 nM (active); on Protein RecA it was 123 nM (active). Besides, the AC50 in assay [2] is 128 nM (active). Further, in assay [3], the IC50 is 698 nM (active).
As for `COC(=O)C(O)(c1c(C)[nH]n(-c2ccccc2)c1=O)C(F)(F)F` (stereo unspecified), the AC50 in assay [2] was < 18 nM (active). In addition, the EC50 at Protein RecA was 3740 nM (active). In addition, the IC50 in assay [3] was 12700 nM (inactive).
In the case of `CC1CC(=O)c2c(cc3c(-c4c(O)cc(O)c5c(O)c6c(cc45)OC(C)CC6=O)c(O)cc(O)c3c2O)O1` (stereo unspecified) [CEPHALOCHROMIN], the EC50 in assay [1] was 348 nM (active); at Streptokinase A it was > 150000 nM (not active); in assay [4], 373 nM (active); in assay [5], 8420 nM (active); with Streptococcus it was 991 nM (active); on Protein RecA, 1570 nM (active). Also, the AC50 in assay [2] was 1780 nM (active).
